What was measured:
[1] = Human serum stability by radio-HPLC; type: in vitro ADME; details: 37 °C
Source text: For biomedical imaging applications, the signal is a net function of target/background ratio. In PET imaging, this signal results from detection of γ-photons arising from annihilation events of positrons and imaging resolution is also dependent upon energy associated with a given radionuclide. Resultant radioactive metabolites could also contribute to nonspecific binding or compete with the parental tracer for binding to the target. Therefore, it is also important to investigate metabolic stability of the radiotracer to explicitly confirm whether or not biochemical targeting profiles of a given tracer are driven by a parental molecular imaging probe. […]
Binding assays were performed using previously described methods.11 Briefly, a fixed concentration (0.25 µM/well) of Aβ1–42 fibrils was incubated for 1 h at 37 °C with increasing concentrations of [18F]-9 (0.1 nM-15 nM) in 30 mM Tris-HCl pH 7.4, 0.1% BSA in a reaction volume of 150 µl. […] The exact hot:cold ([18F]-9 : 5) ratio was measured in each experiment by counting an aliquot of a sample (2 µl) of the radioligand preparation in a scintillation counter. Binding of [18F]-9 to human brain homogenates was assessed by incubating samples of insoluble fraction (1.25 µg insoluble protein/well) from AD subjects, with increasing concentrations of [18F]-9 (0.1nM-18 nM) for 1 h at 37 °C. […]

[2] = Biodistribution studies of [18F]-9 in normal mice; type: in vivo; details: for Blood uptake / Bone uptake / Brain uptake / Heart uptake / Kidney uptake / Liver uptake / Lung uptake: tail-vein injection
Method: Uptake in brain and other critical organs was analyzed in terms of percent injected dose per gram of the tissue (%ID/g) SI Table 1. For in vivo imaging of Aβ plaques, the basic pharmacokinetic model in normal brains involves a high initial penetration of the agent, accompanied by facile clearance due to lack of a binding target. […] For comparison, brain uptake ratios of [^18F]-AV-45 (2 min/2 h) and [^18F]-Florbetaben (2 min/4 h) in normal mice are 4.07 (%ID/g (brain): 2 min: 7.33 ± 1.54; 2 h: 1.80 ± 0.07; 7.33/1.80; 4.07)[10] and 5.0 (%ID/g (brain): 2 min: 4.77; 4 h: 0.95; 4.77/0.95; 5.02)[46], respectively. […] For an agent to be able to serve as an Aβ-imaging agent, literature precedents indicate that brain uptake ratio (%ID/g; the earliest time–point; 2–5 min to that of the latest time point; typically for carbon-11; 30–60 min; and F-18, 2 h) of 3.5 or above could be considered as a benchmark for ability of a given agent to cross the blood-brain barrier. Additionally, the brain uptake of a given imaging agent is also a net function of several components, such as cerebral regional blood flow, BBB permeability, plasma radiotracer concentration, and free fractions of the radiotracer in plasma and in the brain. Furthermore, the lipophilicity of a given compound also reflects a critical physicochemical trait for neuroimaging radiotracers due to its direct relationship to membrane permeability, solubility in water, and entropic contribution to binding. Literature precedents indicate that lipophilic drugs readily cross the BBB, although other chemical characteristics, including the number of hydrogen bonds, molecular weight, polar surface area and molecular size are also known to be critical traits for passive transport. […] Conversely, radiotracers that are too lipophilic can also bind plasma proteins, undergo fast metabolism, while also contributing to high nonspecific binding, such as white matter. […] Additionally, the agent [^18F]-9 excreted from other critical organs over 2 h (SI, Table 1); a critical factor likely to result in favorable dosimetry; although slight defluorination as a function of time is also evident from bone accumulation; yet consistent with pharmacokinetic profiles of other FDA approved agents. For assessing directly the ability of radiotracer to traverse the BBB, [^18F]-9 (170 μCi) was injected into a 24 months old APP/PS1 transgenic mouse and its age-matched WT counterpart, and 30 min post tail-vein injection, the brains were removed, frozen, and sectioned for autoradiography (Fig. 7A–E). […] For ROI analysis of the PET signal in brain section autoradiograms of transgenic mouse (Fig. 7A) and its WT counterpart (Fig. 7D), we used measured count densities in cortex and amygdala target regions and compared them with that of hypothalamus as reference region with a low plaque density as determined by Aβ immunostaining (Fig. 7B). The target/reference ratio (mean ± SD) in the transgenic mouse was 1.88 ± 0.22 compared to 0.96 ± 0.12 in the WT control mouse (Fig. 7E). Since brain stem was also devoid of plaques, we also analyzed the above target regions using brain stem as a reference region, and observed target/reference value in the transgenic to be 0.89 ± 0.1 compared to 0.45 ± 0.07 in the WT mouse. […]
The count intensity (expressed as quantitative light unit (QL)/pixel2) was measured for each ROI after background subtraction, and target/reference ratios for Tg and WT brain were used to compare radiotracer uptake. The final figure was assembled in Adobe Photoshop CS3.
All animal procedures were approved by the Washington University Animal Studies Committee (Protocol # 20150147; Expiration 7/31/18). Thus, biodistribution studies were carried out in "accordance" with the approved guidelines. Pharmacokinetics of 18F-9 in brain and other critical tissues of normal male 12 week old BL6 (WT; 28-36 g) mice were determined as previously described 15. Briefly, 18F-9 (740 kBq) was […]

With CN(C)c1ncc(/C=C\c2nc3cc(OCC[18F])ccc3[se]2)cn1 [[^18F]-9] the “presence of parental tracer (single radio-peak) in human serum” value [1] was “up to 3 h”, the “presence of parental tracer (single radio-peak) in human serum” value ([1]; listed as 18F-9) was 3 h and the “brain uptake clearance ratio superior to [18F]-AV-45” value ([2]; healthy mice, 2 min/120 min) was 1.3 fold. For the same compound, the “brain clearance ratio (%ID/g) 2 min/120 min” value ([2]; normal mice) was 5.33, the Blood uptake ([2]; normal mice, 2 min) was 4.79 ± 0.33 % ID/g and the Bone uptake ([2]; normal mice, 2 min) was 1.15 ± 0.15 % ID/g. It also gave a Brain uptake ([2]; normal mice, 2 min) of 8.86 ± 0.32 % ID/g, a Heart uptake ([2]; normal mice, 2 min) of 8.56± 0.78 % ID/g and a Kidney uptake ([2]; normal mice, 2 min) of 14.93± 0.85 % ID/g. For the same compound, the Liver uptake ([2]; normal mice, 2 min) was 35.44 ± 2.52 % ID/g, the Lung uptake ([2]; normal mice, 2 min) was 10.07± 0.74 % ID/g and the Blood uptake ([2]; normal mice, 60 min) was 2.27 ± 0.06 % ID/g. It also gave a Bone uptake ([2]; normal mice, 60 min) of 3.88 ± 1.48 % ID/g, a Brain uptake ([2]; normal mice, 60 min) of 1.80 ± 0.02 % ID/g and a Heart uptake ([2]; normal mice, 60 min) of 2.15 ± 0.02 % ID/g. It also gave a Kidney uptake ([2]; normal mice, 60 min) of 2.52 ± 0.06 % ID/g, a Liver uptake ([2]; normal mice, 60 min) of 8.64 ± 0.15 % ID/g and a Lung uptake ([2]; normal mice, 60 min) of 2.23 ± 0.11 % ID/g. It also gave a Blood uptake ([2]; normal mice, 120 min) of 2.16 ± 0.03 % ID/g, a Bone uptake ([2]; normal mice, 120 min) of 6.08 ± 0.85 % ID/g and a Brain uptake ([2]; normal mice, 120 min) of 1.66 ± 0.01 % ID/g. For the same compound, the Heart uptake ([2]; normal mice, 120 min) was 1.92 ± 0.05 % ID/g, the Kidney uptake ([2]; normal mice, 120 min) was 2.12 ± 0.09 % ID/g and the Liver uptake ([2]; normal mice, 120 min) was 8.13 ± 0.12 % ID/g. The Lung uptake ([2]; normal mice, 120 min) was 1.98 ± 0.05 % ID/g.
